Where a name gives a salt, the structure may show the parent alone.
Tested on: IL-5 production
Test: Test 3: inhibition of IL-5 production in human PBMC stimulated with ConA
Type: cell-based
Settings: 10^-6 M, 10 μg/ml ConA, 48 hours, read-out: Inhibition rate of IL-5 production
Procedure: Test 3: Test on the inhibition of IL-5 production
The peripheral blood was collected from a normal volunteer and peripheral blood mononuclear cells (PBMC) of the human peripheral blood were separated therefrom by the specific gravity centrifugation method. They were suspended in an AIM-V medium and their cell count was adjusted. To individual wells of a 96-well incubation plate, 1×10^6 cells/ml of PBMC were poured, followed by the addition of a stimulator (10 μg/ml of ConA) and a medicament. The resulting mixture was incubated in 5% CO2 at 37° C. for 48 hours. After incubation, 50 μl of the supernatant were collected and subjected to measurement by a human IL-5 EIA kit (BIO SOURCE, INC.). The inhibition rate was calculated according to the following formula. [formula]

| SMILES | inhibition at 1 µM [%] |
| --- | --- |
| CCCCCC(=O)/C=C/c1cc(OCCCCCC(=O)OCC)c(OCc2ccccc2)cn1 [Ex. 14, Ethyl 6-[5-benzyloxy-2-(3-oxo-1-octenyl)-4-pyridyloxy]hexanoate] | 90.2 |
| Oc1cnc(/C=C/C(O)c2ccccc2)cc1O (stereo not drawn) [Ex. 25, 4,5-Dihydroxy-2-(3-hydroxy-3-phenyl-1-propenyl)pyridine] | 97.5 |
| COC(=O)CCCCCOc1cc(/C=C/C(O)c2ccccc2)ncc1OC (stereo not drawn) [Ex. 26, Methyl 6-[2-(3-hydroxy-3-phenyl-1-propenyl)-5-methoxy-4-pyridyloxy]hexanoate] | 83.7 |
| CCOC(=O)CCCCCOc1cc(/C=C/C(O)c2ccccc2)ncc1OC (stereo not drawn) [Ex. 27, Ethyl 6-[2-(3-hydroxy-3-phenyl-1-propenyl)-5-methoxy-4-pyridyloxy]hexanoate] | 89.6 |
| COC(=O)CCCOc1cnc(/C=C/C(O)c2ccccc2)cc1OC (stereo not drawn) [Ex. 28, Methyl 4-[2-(3-hydroxy-3-phenyl-1-propenyl)-4-methoxy-5-pyridyloxy]butanoate] | 72.1 |
| COC(=O)CCCOc1cc(/C=C/C(O)c2ccccc2)ncc1OC (stereo not drawn) [Ex. 29, Methyl 4-[2-(3-hydroxy-3-phenyl-1-propenyl)-5-methoxy-4-pyridyloxy]butanoate] | 99.8 |
| COC(=O)CCCOc1cnc(/C=C/C(O)C2CCCC2)cc1OC (stereo not drawn) [Ex. 32, Methyl 4-[2-(3-cyclopentyl-3-hydroxy-1-propenyl)-4-methoxy-5-pyridyloxy]butanoate] | 80.7 |
| COc1cnc(/C=C/C(O)c2ccccc2)cc1OCCCC(=O)O (stereo not drawn) [Ex. 34, 4-[2-(3-Hydroxy-3-phenyl-1-propenyl)-5-methoxy-4-pyridyloxy]butanoic acid] | 61 |
| COc1cc(/C=C/C(O)C2CCCC2)ncc1OCCCC(=O)O (stereo not drawn) [Ex. 37, 4-[2-(3-Cyclopentyl-3-hydroxy-1-propenyl)-4-methoxy-5-pyridyloxy]butanoic acid hydrochloride] | 72.6 |
| CCCCCC(O)/C=C/c1cc(OCCCC(=O)O)c(O)cn1 (stereo not drawn) [Ex. 39, 4-[5-Hydroxy-2-(3-hydroxy-1-octenyl)-4-pyridyloxy]butanoic acid hydrochloride] | 97.6 |
| CCCCCC(O)/C=C/c1cc(OCCCC(=O)O)c(OC)cn1 (stereo not drawn) [Ex. 40, 4-[2-(3-Hydroxy-1-octenyl)-5-methoxy-4-pyridyloxy]butanoic acid hydrochloride] | 97.5 |
| CCCCCC(O)/C=C/c1cc(OC)c(OCCCCC(=O)O)cn1 (stereo not drawn) [Ex. 41, 5-[2-(3-Hydroxy-1-octenyl)-4-methoxy-5-pyridyloxy]pentanoic acid hydrochloride] | 91 |
| COC(=O)CCCCCOc1cc(/C=C/C(=O)c2ccccc2)ncc1OC [Ex. 42, methyl 6-[5-methoxy-2-(3-oxo-3-phenyl-1-propenyl)-4-pyridyloxy]hexanoate] | 77.5 |
| COc1cnc(/C=C/C(=O)c2ccccc2OC)cc1OC [Ex. 49] | 65 |
| COc1ccc(C(=O)/C=C/c2cc(OC)c(OC)cn2)cc1 [Ex. 50, 4,5-Dimethoxy-2-[3-(4-methoxyphenyl)-3-oxo-1-propenyl]pyridine] | 79.4 |
| CCOc1cnc(/C=C/C(=O)c2ccccc2)cc1O [Ex. 55, 5-Ethoxy-4-hydroxy-2-(^3-oxo-3-phenyl-1-propenyl]pyridine] | 97.5 |
| COc1ccc(OC)c(C(=O)/C=C/c2cc(O)c(OC)cn2)c1 [Ex. 57, 4-Hydroxy-5-methoxy-2-[3-(2,5-dimethoxyphenyl)-3-oxo-1-propenyl]pyridine] | 82.5 |
| COc1cnc(/C=C/C(=O)c2ccc(OC)c(OC)c2)cc1O [Ex. 58, 4-Hydroxy-5-methoxy-2-[3-(3,4-dimethoxyphenyl)-3-oxo-1-propenyl]pyridine hydrochloride] | 91.3 |
| COc1ccc(C(=O)/C=C/c2cc(O)c(OC)cn2)c(OC)c1 [Ex. 59, 4-Hydroxy-5-methoxy-2-[3-(2,4-dimethoxyphenyl)-3-oxo-1-propenyl]pyridine] | 78.9 |
| COc1cnc(/C=C/C(=O)c2ccccc2OC)cc1O [Ex. 60, 4-Hydroxy-5-methoxy-2-[3-(2-methoxyphenyl)-3-oxo-1-propenyl]pyridine] | 91.4 |
| COc1cnc(/C=C/C(=O)c2cc(OC)c(OC)c(OC)c2)cc1O [Ex. 61, 4-Hydroxy-5-methoxy-2-[3-oxo-3-(3,4,5-trimethoxyphenyl)-1-propenyl]pyridinehydrochloride] | 79.4 |
| COc1cnc(/C=C/C(=O)c2ccco2)cc1OC [Ex. 62, 4,5-Dimethoxy-2-[3-(2-furyl)-3-oxo-1-propenyl]pyridine] | 72.3 |
| COc1cnc(/C=C/C(=O)c2cccs2)cc1OC [Ex. 63, 4,5-Dimethoxy-2-[3-oxo-3-(2-thienyl)-1-propenyl]pyridine] | 81 |

| SMILES | inhibition at 1 µM [%] |
| --- | --- |
| COc1cnc(/C=C/C(=O)c2ccsc2)cc1OC [Ex. 64, 4,5-Dimethoxy-2-[3-oxo-3-(3-thienyl)-1-propenyl]pyridine] | 82.1 |
| COc1cnc(/C=C/C(=O)c2ccsc2)cc1O [Ex. 65, 4-Hydroxy-5-methoxy-2-[3-oxo-3-(3-thienyl)-1-propenyl]pyridine] | 77.2 |
| COc1cnc(/C=C/C(=O)c2ccccn2)cc1OC [Ex. 66, 4,5-dimethoxy-2-[3-oxo-3-(2-pyridyl)-1-propenyl]pyridine] | 70.1 |
| COc1cnc(/C=C/C(=O)c2cccnc2)cc1OC [Ex. 67, 4,5-Dimethoxy-2-[3-oxo-3-(3-pyridyl)-1-propenyl]pyridine] | 77.9 |
| COc1cnc(/C=C/C(=O)c2ccncc2)cc1OC [Ex. 68, 4,5-Dimethoxy-2-[3-oxo-3-(4-pyridyl)-1-propenyl]pyridine] | 95.4 |
| CCOC(=O)CCCCCOc1cc(/C=C/C(=O)c2ccccn2)ncc1OC [Ex. 69, Ethyl 6-[5-methoxy-2-(3-oxo-3-(2-pyridyl)-1-propenyl]-4-pyridyloxy]hexanoate] | 73.1 |
| COc1cnc(/C=C/C(=O)C2CCCCC2)cc1O [Ex. 75, 2-(3-Cyclohexyl-3-oxo-1-propenyl)-4-hydroxy-5-methoxypyridine hydrochloride] | 90.6 |
| CCOC(=O)CCCOc1cc(/C=C/C(=O)C2CCCC2)ncc1OC [Ex. 79, Ethyl 4-[2-(3-cyclopentyl-3-oxo-1-propenyl)-5-methoxy-4-pyridyloxy]butanoate hyd rochloride] | 64.1 |
| CCOC(=O)CCCOc1cc(/C=C/C(=O)C2CCC2)ncc1OC [Ex. 80, Ethyl 4-[2-(3-cyclobutyl-3-oxo-1-propenyl)-5-methoxy-4-pyridyloxy]butanoatehydrochloride] | 69.2 |
| CCOC(=O)COc1cnc(/C=C/C(=O)c2ccccc2)cc1OC [Ex. 81, Ethyl [4-methoxy-6-(3-oxo-3-phenyl-1-propenyl)-3-pyridyloxy]acetate] | 72.7 |
| CCOC(=O)CCCOc1cnc(/C=C/C(=O)c2ccccc2)cc1OC [Ex. 82, Ethyl 4-[4-methoxy-6-(3-oxo-3-phenyl-1-propenyl)-3-pyridyloxy]butanoate] | 69.6 |
| CCOC(=O)CCCCCOc1cnc(/C=C/C(=O)c2ccccc2)cc1OC [Ex. 83, Ethyl 6-[4-methoxy-6-(3-oxo-3-phenyl-1-propenyl)-3-pyridyloxy]hexanoate] | 96.2 |
| CCOC(=O)CCCOc1cc(/C=C/C(=O)c2ccccc2)ncc1OCC [Ex. 84, Ethyl 4-[5-ethoxy-2-(3-oxo-3-phenyl-1-propenyl)-4-pyridyloxy]butanoate hydrochloride] | 89.4 |
| CCOC(=O)CCCCOc1cc(/C=C/C(=O)c2cc(OC)ccc2OC)ncc1OC [Ex. 89, Ethyl 5-[5-methoxy-2-(3-(2,5-dimethoxyphenyl)-3-oxo-1-propenyl)-4-pyridyloxy]pentanoate] | 82.1 |
| CCOC(=O)CCCOc1cc(/C=C/C(=O)c2ccccc2OC)ncc1OC [Ex. 93, Ethyl 4-[5-methoxy-2-(3-(2-methoxyphenyl)-3-oxo-7-propenyl)-4-pyridyloxy]butanoate hydrochloride] | 66 |
| CCOC(=O)CCCCCOc1cc(/C=C/C(=O)c2cc(OC)c(OC)c(OC)c2)ncc1OC [Ex. 101, Ethyl 6-[5-methoxy-2-(3-oxo-3-(3,4,5-trimethoxyphenyl)-1-propenyl)-4-pyridyloxy]hexanoate hydrochloride] | 95.6 |
| COc1cnc(/C=C/C(=O)c2cc(OC)c(OC)c(OC)c2)cc1OCCCCCCO [Ex. 102, 6-[5-Methoxy-2-(3-oxo-3-(3,4,5-trimethoxyphenyl)-1-propenyl)-4-pyridyloxy]hexyl alcohol hydrochloride] | 97.3 |
| COc1cnc(/C=C/C(=O)c2ccccc2)cc1OCCCCCC(=O)O [Ex. 103, 6-[5-Methoxy-2-(3-oxo-3-phenyl-1-propenyl)-4-pyridyloxy]hexanoic acid] | 72.4 |
| CCOc1cnc(/C=C/C(=O)c2ccccc2)cc1OCCCC(=O)O [Ex. 104, 4-[5-Ethoxy-2-(3-oxo-3-phenyl-1-propenyl)-4-pyridyloxy]butanoic acid hydrochloride] | 89.3 |
| COc1cnc(/C=C/C(=O)N2CCCCC2)cc1OC [Ex. 107, 4,5-dimethoxy-2-(3-oxo-3-piperidino-1-propenyl)pyridine hydrochloride] | 71.9 |
| COc1cnc(/C=C/C(=O)N2CCCC2)cc1OC [Ex. 108, 4,5-Dimethoxy-2-(3-oxo-3-pyrrolidino-1-propenyl)pyridine hydrochloride] | 78.5 |
| COc1cnc(/C=C/C(=O)N2CCCCCC2)cc1OC [Ex. 109, 4,5-Dimethoxy-2-[3-(1-azepanyl)-3-oxo-1-propenyl]pyridine hydrochloride] | 83.8 |

From patent US6046218A, “Pyridine derivative and medicament containing the same as an effective ingredient” (SS Pharmaceutical Co., Ltd., priority 1996, dated 2000)
